Consider one compound from patent US20240109864A1, “SUBSTITUTED PYRAZOLYL PIPERIDINE CARBOXYLIC ACIDS” (BAYER AKTIENGESELLSCHAFT, priority 2020, published 2024).

Series [1] can be described thus: Pharmacokinetic parameters following oral administration in rats. Format: in vivo. How it is done:
(§1) The pharmacokinetic parameters of the compounds according to the invention were determined in male Wistar rats and/or in female beagles and/or in cynomolgus monkeys and/or in male CD-1 mice. Intravenous administration in the case of mice and rats was carried out by means of a species-specific plasma/DMSO formulation, and in the case of dogs and monkeys by means of a water/PEG400/ethanol formulation. In all species, oral administration of the dissolved substance was performed via gavage, based on a water/PEG400/ethanol formulation.
An internal standard (which may also be a chemically unrelated substance) was added to the samples of the compounds of the invention, calibration samples and qualifiers, and there followed protein precipitation by means of acetonitrile in excess. Addition of a buffer solution matched to the LC conditions, and subsequent vortexing, was followed by centrifugation at 1000 g. The supernatant was analysed by LC-MS/MS using C18 reversed-phase columns and variable mobile phase mixtures. The substances were quantified via the peak heights or areas from extracted ion chromatograms of specific selected ion monitoring experiments.
The plasma concentration/time plots determined were used to calculate the pharmacokinetic parameters such as AUC, Cmax, t1/2 (terminal half-life), F (bioavailability), MRT (mean residence time) and CL (clearance), by means of a validated pharmacokinetic calculation program.
Since the substance quantification was performed in plasma, it was necessary to determine the blood/plasma distribution of the substance in order to be able to adjust the pharmacokinetic parameters correspondingly. For this purpose, a defined amount of substance was incubated in K3 EDTA whole blood of the species in question in a rocking roller mixer for 20 min. After centrifugation at 1000 g, the plasma concentration was measured (by means of LC-MS/MS; see above) and determined by calculating the ratio of the Cblood/Cplasma value.

The nature of series [2]: Pharmacokinetic parameters following intravenous administration in rats. Format: in vivo. Here is the method:
as §1
An internal standard (which may also be a chemically unrelated substance) was added to the samples of the compounds of the invention, calibration samples and qualifiers, and there followed protein precipitation by means of acetonitrile in excess. […] The supernatant was analysed by LC-MS/MS using C18 reversed-phase columns and variable mobile phase mixtures. The substances were quantified via the peak heights or areas from extracted ion chromatograms of specific selected ion monitoring experiments.
The plasma concentration/time plots determined were used to calculate the pharmacokinetic parameters such as AUC, Cmax, t1/2 (terminal half-life), F (bioavailability), MRT (mean residence time) and CL (clearance), by means of a validated pharmacokinetic calculation program. […]

Series [3] addresses T1, recombinant guanylate cyclase reporter cell line (Rattus norvegicus, UniProt P20595).
T1 construct: expressed in transfected cells
T1 sequence (P20595 1-619): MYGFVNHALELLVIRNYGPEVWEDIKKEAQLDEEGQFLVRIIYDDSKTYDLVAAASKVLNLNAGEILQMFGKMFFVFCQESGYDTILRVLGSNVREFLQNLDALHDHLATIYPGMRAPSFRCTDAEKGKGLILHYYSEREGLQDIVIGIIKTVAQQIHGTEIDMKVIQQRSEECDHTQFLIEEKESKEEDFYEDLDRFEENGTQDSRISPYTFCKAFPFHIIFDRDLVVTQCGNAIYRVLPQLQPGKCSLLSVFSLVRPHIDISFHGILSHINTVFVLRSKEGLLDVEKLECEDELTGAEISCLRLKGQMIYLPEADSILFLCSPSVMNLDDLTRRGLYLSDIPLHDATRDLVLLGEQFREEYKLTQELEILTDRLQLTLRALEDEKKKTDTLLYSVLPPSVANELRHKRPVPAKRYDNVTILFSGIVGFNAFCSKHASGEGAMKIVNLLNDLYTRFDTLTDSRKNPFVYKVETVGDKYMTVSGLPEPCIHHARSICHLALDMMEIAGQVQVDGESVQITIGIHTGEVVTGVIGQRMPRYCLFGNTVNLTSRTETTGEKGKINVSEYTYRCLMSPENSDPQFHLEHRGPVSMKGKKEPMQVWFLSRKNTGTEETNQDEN
T1 sequence (P19686 1-690 partner): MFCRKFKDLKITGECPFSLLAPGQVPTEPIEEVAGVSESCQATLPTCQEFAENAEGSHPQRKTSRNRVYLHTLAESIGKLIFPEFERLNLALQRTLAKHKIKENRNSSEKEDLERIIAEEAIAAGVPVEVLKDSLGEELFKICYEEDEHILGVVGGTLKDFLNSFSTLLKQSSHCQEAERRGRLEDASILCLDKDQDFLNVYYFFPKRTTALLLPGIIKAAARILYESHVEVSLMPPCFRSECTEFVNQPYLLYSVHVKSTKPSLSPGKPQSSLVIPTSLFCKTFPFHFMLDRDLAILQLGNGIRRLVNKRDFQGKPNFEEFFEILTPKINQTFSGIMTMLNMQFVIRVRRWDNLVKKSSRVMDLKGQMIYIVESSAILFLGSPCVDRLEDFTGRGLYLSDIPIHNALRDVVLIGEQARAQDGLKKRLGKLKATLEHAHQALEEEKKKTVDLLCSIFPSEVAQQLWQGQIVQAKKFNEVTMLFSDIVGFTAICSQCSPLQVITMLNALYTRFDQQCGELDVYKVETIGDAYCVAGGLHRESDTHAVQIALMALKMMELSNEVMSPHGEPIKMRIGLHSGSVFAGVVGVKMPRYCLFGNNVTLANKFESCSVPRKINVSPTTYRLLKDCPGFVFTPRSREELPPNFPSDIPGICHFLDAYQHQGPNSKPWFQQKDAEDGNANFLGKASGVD
As to the kind of experiment: Effect on a recombinant guanylate cyclase reporter cell line. The conditions noted are these: MEC = minimum effective concentration; in some cases mean values from individual determinations. It is filed as cell-based. How it is done:
The cellular activity of the compounds according to the invention was determined using a recombinant guanylate cyclase reporter cell line, as described in F. Wunder et al., Anal. Biochem. 339, 104-112 (2005).

Molecules are shown by their SMILES. Counter-ions that a name gives are not always drawn.

With `O=C(O)c1cnn(C2CCCN(c3cc(Cl)ccc3-c3ccc(N4CCN(CC5CC5)CC4)cc3)C2)c1C(F)(F)F` (single isomer, unassigned) [Example 7, 1-[1-[5-Chloro-2-[4-[4-(cyclopropylmethyl)piperazin-1-yl]phenyl]phenyl]-3-piperidyl]-5-(trifluoromethyl)pyrazole-4-carboxylic acid hydrochloride], the “bioavailability in comparison to prior art (WO 2012/058132)” value in series [1] (after oral (p.o.) application) was “lower bioavailability”. Further, the AUCnorm turned out to be 0.52 kg·h/L in series [1] (oral administration in rats) and 1.37 kg·h/L in series [2]. The F in series [1] (oral administration in rats, F = bioavailability) turned out to be 37.4%. Besides, the MEC in series [3] is reported as 2.0 nM.
